Laboratory results: patent EP1080104B1, “CERTAIN HETEROARYL SUBSTITUTED THIOL INHIBITORS OF ENDOTHELIN-CONVERTING ENZYME” (Novartis AG, priority 1998, dated 2005)
Bridges are numbered along the chain shown (N, C = ends). Where no end group is shown, it is not given here.

Key:
[1] = biological target: T1, recombinant human endothelin converting enzyme-1 (rhECE-1) (Homo sapiens, UniProt P42892); assay: in vitro assay for rh-ECE-1 inhibition (radioimmunoassay of ET-1 formed from big ET-1); type: biochemical; details: membrane preparation from CHO cells, human big ET-1 0.2 µM, 2 h at 37 °C
T1 construct: made in house; host or cells: Chinese hamster ovary (CHO) cells; 100,000 x g membrane pellet of the homogenate
T1 sequence (P42892 1-770): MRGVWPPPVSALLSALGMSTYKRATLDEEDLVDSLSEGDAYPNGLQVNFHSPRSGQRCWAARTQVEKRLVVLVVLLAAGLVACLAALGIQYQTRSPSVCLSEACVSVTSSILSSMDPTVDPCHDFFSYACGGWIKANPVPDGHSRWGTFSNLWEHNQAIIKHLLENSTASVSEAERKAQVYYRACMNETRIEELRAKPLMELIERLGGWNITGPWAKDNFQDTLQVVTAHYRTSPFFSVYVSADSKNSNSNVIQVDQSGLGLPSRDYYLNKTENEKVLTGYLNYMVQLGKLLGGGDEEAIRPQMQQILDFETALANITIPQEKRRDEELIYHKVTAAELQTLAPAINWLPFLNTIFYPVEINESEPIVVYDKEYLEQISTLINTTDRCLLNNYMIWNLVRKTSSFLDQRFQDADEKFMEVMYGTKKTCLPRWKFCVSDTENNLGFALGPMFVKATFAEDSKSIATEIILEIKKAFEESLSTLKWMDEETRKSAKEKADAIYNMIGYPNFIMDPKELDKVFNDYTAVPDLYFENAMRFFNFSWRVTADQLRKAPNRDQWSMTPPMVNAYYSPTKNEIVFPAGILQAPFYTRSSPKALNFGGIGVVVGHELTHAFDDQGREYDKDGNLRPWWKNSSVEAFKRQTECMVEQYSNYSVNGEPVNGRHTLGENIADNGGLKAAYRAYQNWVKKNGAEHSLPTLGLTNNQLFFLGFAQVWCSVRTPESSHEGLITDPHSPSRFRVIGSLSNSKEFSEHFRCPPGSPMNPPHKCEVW
Method: Cells are harvested by scraping, pelleted by centrifugation, and homogenized at 4 °C in a buffer containing 5 mM MgCl2., 1 µM pepstatin A, 100 µM leupeptin, 1 mM PMSF, and 20 mM Tris, pH 7.0, with a ratio of 2 mL of buffer/mL of cells. The cell debris is removed by brief centrifugation, and the supernatant is centrifuged again at 100,000 x g for 30 minutes. The resulting pellet is resuspended in a buffer containing 200 mM NaCl and 50 mM Tes, pH 7.0, at a protein concentration about 15 mg/mL and stored in aliquots at -80°C.
To assess the effect of an inhibitor on ECE-1 activity, 10 µg of protein is preincubated with the compound at a desired concentration for 20 min at room temperature in 50 mM TES, pH 7.0, and 0.005% Triton X-100 in a volume of 10 µL. […]
Diluted samples (200 µL) obtained from the above enzyme assay are incubated at 4° C overnight with 25 µL each of [^125I]ET-1 (10,000 cpm/tube) and 1:20,000-fold diluted rabbit antibodies that recognize specifically the carboxyl terminal tryptophan of ET-1. […] The supernatant is decanted, and the radioactivity in the pellet is counted in a gamma counter. Total and nonspecific binding are measured in the absence of nonradioactive ET-1 and anti-ET antibodies, respectively.
In order to determine the IC50 value of an inhibitor, a concentration-response curve of each inhibitor is determined. […]

[2] = biological target: rabbit antibodies that recognize specifically the carboxyl terminal tryptophan of ET-1; type: binding; details: mean ± SEM, n = 3 - 5; 4° C overnight
Method: Diluted samples (200 µL) obtained from the above enzyme assay are incubated at 4° C overnight with 25 µL each of [^125I]ET-1 (10,000 cpm/tube) and 1:20,000-fold diluted rabbit antibodies that recognize specifically the carboxyl terminal tryptophan of ET-1. Goat anti-rabbit antibodies coupled to magnetic beads (70 µg) are then added to each tube, and the reaction mixture is further incubated for 30 min at room temperature. The beads are pelleted using a magnetic rack. The supernatant is decanted, and the radioactivity in the pellet is counted in a gamma counter. Total and nonspecific binding are measured in the absence of nonradioactive ET-1 and anti-ET antibodies, respectively.

Row | IC50 [1] [nM] | IC50 values (displace [125I]ET-1 binding to the antibodies) [2] | Compound
1 | ~4 |  | CC(C)C[C@H](S)C(=O)NC1(C(=O)N[C@@H](Cc2ccc(-c3cccs3)nc2)C(=O)O)CCCC1 [Example 2(s), 2-{[1-(2-Mercapto-4-methyl-pentanoylamino)-cyclopentanecarbonyl]-amino}-3-[6-(thien-2-yl)-pyridin-3-yl]-propionic acid]
2 |  | 260,000 ± 66,000 fmol | big ET-1: Human big ET-1, substrate of the ECE-1 assay (CSCSSLMDKECVYFCHLDIIWVNTPEHVVPYGLGSPRS; disulfide 1-15, 3-11; ends not checked; UniProt P05305 53-90, looked up)
